We go through 11 molecules from patent US12358915B2, “METTL3 inhibitory compounds” (STORM THERAPEUTICS LTD., priority 2019, dated 2025).

The structures appear in SMILES notation. Read-outs that look alike come from different tables or passages of the source.

For one assay, the target named is T1, METTL3/14 (Homo sapiens, UniProt Q86U44).
T1 construct: The enzyme used was full-length his-tagged METTL3; His; made in house
The experiment in a line: METTL3/14 methyltransferase assay (METTL3_14 RFMS, RapidFire mass spectrometry).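 Further: recombinant His-tagged METTL3 with FLAG-tagged METTL14 from baculovirus, SAH product quantified by mass spectrometry against isotope-labelled internal standards, 60 min at room temperature, scaled between no-RNA and DMSO-only wells.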 To be noted: 5 nM METTL3/14, 0.2 μM RNA substrate, 0.5 μM SAM, lower limit of the assay IC50=5 nM, read-out: METTL3_14 RFMS IC50. Type of assay: biochemical.

The subject of a further assay is MOLM-13 cells. The experiment in a line: MOLM13 CTG - analysis of cell proliferation (Cell Titre Glo). The conditions noted are these: Homo sapiens, geometric mean, read-out: CTG MOLM13 cells IC50 GEOMEAN. Type of assay: cell-based.

T1 sequence (Q86U44 whole entry): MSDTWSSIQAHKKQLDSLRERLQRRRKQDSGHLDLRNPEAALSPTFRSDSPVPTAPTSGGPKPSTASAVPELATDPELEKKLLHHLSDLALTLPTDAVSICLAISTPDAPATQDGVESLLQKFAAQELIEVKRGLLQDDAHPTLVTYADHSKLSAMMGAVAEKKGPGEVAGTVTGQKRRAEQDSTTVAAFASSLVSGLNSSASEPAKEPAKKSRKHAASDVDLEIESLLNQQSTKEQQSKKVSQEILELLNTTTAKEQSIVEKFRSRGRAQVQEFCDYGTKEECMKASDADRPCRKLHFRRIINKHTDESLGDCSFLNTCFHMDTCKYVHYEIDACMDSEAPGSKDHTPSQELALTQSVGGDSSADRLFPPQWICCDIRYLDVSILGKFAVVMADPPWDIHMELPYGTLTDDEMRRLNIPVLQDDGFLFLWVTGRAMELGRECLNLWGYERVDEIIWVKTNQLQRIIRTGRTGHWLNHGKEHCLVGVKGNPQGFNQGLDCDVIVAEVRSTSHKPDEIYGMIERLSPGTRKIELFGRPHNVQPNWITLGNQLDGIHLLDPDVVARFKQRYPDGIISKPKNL
T1 sequence (Q9HCE5 whole entry partner): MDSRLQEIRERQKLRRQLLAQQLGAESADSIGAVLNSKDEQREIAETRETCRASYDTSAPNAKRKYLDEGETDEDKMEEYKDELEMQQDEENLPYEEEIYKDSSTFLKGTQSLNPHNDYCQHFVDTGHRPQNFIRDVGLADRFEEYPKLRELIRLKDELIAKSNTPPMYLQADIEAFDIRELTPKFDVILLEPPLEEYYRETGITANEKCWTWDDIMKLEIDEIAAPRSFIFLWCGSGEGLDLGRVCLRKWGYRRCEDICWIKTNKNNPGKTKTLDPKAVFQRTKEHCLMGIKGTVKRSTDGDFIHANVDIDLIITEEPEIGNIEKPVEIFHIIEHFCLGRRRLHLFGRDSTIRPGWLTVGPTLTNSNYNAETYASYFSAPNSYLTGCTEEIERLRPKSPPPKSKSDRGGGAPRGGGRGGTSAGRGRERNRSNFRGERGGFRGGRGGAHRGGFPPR
Method for MOLM-13 cells: MOLM-13 or MOLM-14 cells were plated, in suspension, in 24 well tissue culture plates at final concentration of 200,000/ml, with or without 50 ng/ml IFNγ. […] Cells were incubated for 4 days at 37° C. at which point 600 μl of cell suspension was removed for Mass spectrometry analysis of m6A. 600 μl of fresh media containing the appropriate concentration of METTL3 inhibitor/IFNγ was added to remaining cell suspensions. Cells where then cultured for a further 7 days, cell suspension was sampled for analysis of proliferation and Cell surface markers periodically.
At regular time points (4, 5, 6 &7) days cells were mixed to maintain a homogenous cell suspension. 25 μl of this cell suspension was removed and added to a white 384 well plate, 25 μl of Cell Titre Glo reagent (Promega) was added, and incubated for 10 mins at room temperature before measurement of luminescence intensity, as per the manufacturers instructions.

As a reminder, the IC50 is the concentration that gives 50% inhibition. As for `OCc1ccc2nc(Cn3cc(-c4cc(Br)cc5[nH]ncc45)nn3)cn2c1` [Example 253, (2-{[4-(6-bromo-1H-indazol-4-yl)-1H-1,2,3-triazol-1-yl]methyl}imidazo[1,2-a]pyridin-6-yl)methanol], the values for the IC50 at METTL3/14 (Compounds 63-265) and in the assay on MOLM-13 cells were 0.207 µM and 2.79 µM, respectively.
Turning to `O=c1cc(-c2cn(Cc3cn4cc(CNCC5CCC5)ccc4n3)nn2)nc2ccccn12` [Example 342, 2-[1-[[6-[(cyclobutylmethylamino)methyl]imidazo[1,2-a]pyridin-2-yl]methyl]triazol-4-yl]pyrido[1,2-a]pyrimidin-4-one], the values for the IC50 at METTL3/14 (Compounds 266-351) and in the assay with MOLM-13 cells were 0.0184 µM and 6.71 µM, respectively.
As to `O=C(NCc1cn2cc(CNCC3CC(F)(F)C3)ccc2n1)c1cc(=O)n2ccccc2n1` [Compound 83, N-{[6-({[(3,3-difluoro-cyclobutyl)methyl]amino}methyl)imidazo[1,2-a]pyridin-2-yl]methyl}-4-oxo-4H-pyrido [1,2-a]pyrimidine-2-carboxamide], the half-inhibitory concentration (IC50) at METTL3/14 (Compounds 63-265) was 0.0106 µM; with MOLM-13 cells it was 4.12 µM.
For `CC(NCc1ccc2nc(CNC(=O)c3cc(=O)n4ccccc4n3)cn2c1)C1CCCCC1` (stereo not shown) [Compound 203, N-[(6-{[(1-cyclohexylethyl)amino]methyl}imidazo[1,2-a]pyridin-2-yl)methyl]-4-oxo-4H-pyrido [1,2-a]pyrimidine-2-carboxamide] the same measures were 0.032 µM and 8.74 µM.
As for `CC1(CNCc2ccc3nc(CNC(=O)c4cc(=O)n5ccccc5n4)cn3c2)CCC1` [Compound 282, N-[[6-[[(1-methylcyclobutyl)methylamino]methyl]imidazo[1,2-a]pyridin-2-yl]methyl]-4-oxo-pyrido[1,2-a]pyrimidine-2-carboxamide], the figures for the IC50 on METTL3/14 (Compounds 266-351) and in the assay on MOLM-13 cells were 0.0106 µM and 3.42 µM, respectively.
For `Oc1cc(-c2cn(Cc3cn4cc(CNCC5(O)CCC5)ccc4n3)nn2)c2cn[nH]c2c1` [Example 267, 4-[1-[[6-[[(1-hydroxycyclobutyl)methylamino]methyl]imidazo[1,2-a]pyridin-2-yl]methyl]triazol-4-yl]-1H-indazol-6-ol], the IC50 on METTL3/14 (Compounds 266-351) is 0.00695 µM; in the assay on MOLM-13 cells it was at least 30 µM.
Consider `CC(C)(C)CNCc1ccc2nc(Cn3cc(-c4cccc5[nH]ncc45)nn3)cn2c1` [Example 250, (2,2-dimethylpropyl)[(2-{[4-(1H-indazol-4-yl)-1H-1,2,3-triazol-1-yl]methyl}imidazo[1,2-a]pyridin-6-yl)methyl]amine], for which the values for the IC50 on METTL3/14 (Compounds 63-265) and with MOLM-13 cells were 0.0113 µM and 3 µM, respectively.
The corresponding values for `O=C(NCc1cn2cc(CNC3(c4ccccc4)COC3)ccc2n1)c1cc(=O)n2ccccc2n1` [Compound 89, 4-oxo-N-[(6-{[(3-phenyloxetan-3-yl)amino]methyl}imidazo[1,2-a]pyridin-2-yl)methyl]-4H-pyrido[1,2-a]pyrimidine-2-carboxamide] are 1.86 µM and 13.1 µM.
On to `CN(Cc1ccccc1)Cc1ccc2nc(CNC(=O)c3cc(=O)n4ccccc4n3)cn2c1` [Compound 74, N-[(6-{[benzyl (methyl)amino]methyl}imidazo [1,2-a]pyridin-2-yl)methyl]-4-oxo-4H-pyrido [1,2-a]pyrimidine-2-carboxamide], for which the IC50 at METTL3/14 (Compounds 63-265) was 0.122 µM; with MOLM-13 cells it was at least 30 µM.
Consider `COc1ccc2[nH]ncc2c1-c1cn(Cc2cn3cc(CNCC4(O)CCC4)ccc3n2)nn1` [Example 268, 1-[[[2-[[4-(5-methoxy-1H-indazol-4-yl)triazol-1-yl]methyl]imidazo[1,2-a]pyridin-6-yl]methylamino]methyl]cyclobutanol], for which the IC50 is 0.0106 µM at METTL3/14 (Compounds 266-351) and 5.33 µM with MOLM-13 cells.
For `CC(C)(O)CNCc1ccc2nc(CNC(=O)c3cc(=O)n4ccccc4n3)cn2c1` [Compound 287, N-[[6-[[(2-hydroxy-2-methyl-propyl)amino]methyl]imidazo[1,2-a]pyridin-2-yl]methyl]-4-oxo-pyrido[1,2-a]pyrimidine-2-carboxamide] the same measures were 0.0695 µM and at least 30 µM.
